In the assay the target is NLRP3 (Homo sapiens, UniProt Q96P20). Description: THP-1 cells pyroptosis assay. The note with it: THP-1 cells, 1.0 μg/ml LPS, compound 3 hrs, nigericin 5 μM 1 hr, resazurin readout; read-out: THP IC50. In kind it is cell-based. Also on record: Seed THP-1 cells (25,000 cells/well) containing 1.0 μg/ml LPS; host or cells: THP-1 cells, LPS-primed, nigericin-stimulated. The source says:
NLRP and Pyroptosis It is well established that the activation of NLRP3 leads to cell pyroptosis and this feature plays an important part in the manifestation of clinical disease (Yan-gang Liu et al., Cell Death &Disease, 2017, 8(2), e2579; Alexander Wree et al., Hepatology, 2014, 59(3), 898-910; Alex Baldwin et al., Journal of Medicinal Chemistry, 2016, 59(5), 1691-171; Ema Ozaki et al., Journal of Inflammation Research, 2015, 8, 15-27; Zhen Xie & Gang Zhao, Neuroimmunology Neuroinflammation, 2014, 1(2), 60-65; Mattia Cocco et al., Journal of Medicinal Chemistry, 2014, 57(24), 10366-10382; T. Satoh et al., Cell Death &Disease, 2013, 4, e644). Therefore, it is anticipated that inhibitors of NLRP3 will block pyroptosis, as well as the release of pro-inflammatory cytokines (e.g. […]) from the cell. THP-1 Cells: Culture and Preparation THP-1 cells (ATCC #TIB-202) were grown in RPMI containing L-glutamine (Gibco #11835) supplemented with imM sodium pyruvate (Sigma #S8636) and penicillin (100 units/ml)/streptomycin (0.1 mg/ml) (Sigma #P4333) in 10% Fetal Bovine Serum (FBS) (Sigma #Fo804). The cells were routinely passaged and grown to confluency (˜10^6 cells/ml). On the day of the experiment, THP-1 cells were harvested and resuspended into RPMI medium (without FBS). The cells were then counted and viability (>90%) checked by Trypan blue (Sigma #T8154). Appropriate dilutions were made to give a concentration of 625,000 cells/ml. To this diluted cell solution was added LPS (Sigma #L4524) to give a […] Final Assay Concentration (FAC). 40 μl of the final preparation was aliquoted into each well of a 96-well plate. The plate thus prepared was used for compound screening. THP-1 Cells Pyroptosis Assay The following method step-by-step assay was followed for compound screening. • 1. Seed THP-1 cells (25,000 cells/well) containing 1.0 μg/ml LPS in 40 μl of RPMI medium (without FBS) in 96-well, black walled, clear bottom cell culture plates coated with poly-D-lysine (VWR #734-0317) • 2. Add […] compound (8 points half-log dilution, with 10 μM top dose) or vehicle (DMSO 0.1% FAC) to the appropriate wells • 3. […] Add 5 μl nigericin (Sigma #N7143) (FAC 5 μM) to all wells • 5. […] At the end of the incubation period, spin plates at 300 xg for 3 mins and remove supernatant • 7. Then add 50 μl of resazurin (Sigma #R7017) (FAC 100μ M resazurin in RPMI medium without FBS) and incubate plates for a further 1-2 hrs at 37° C. and 5% CO2 • 8. Plates were read in an Envision reader at Ex 560 nm and Em 590 nm • 9. IC50 data is fitted to a non-linear regression equation (log inhibitor vs response-variable slope 4-parameters) [table]

Counter-ions that a name gives are not always drawn. Some results are limits rather than exact numbers.

IC50 data for 24 compounds are collected here from patent publication US11613542B2, “Sulfonylureas and sulfonylthioureas as NLRP3 inhibitors” (Inflazome Limited, priority 2017, dated 2023).

Sequence of NLRP3 (Q96P20 whole entry): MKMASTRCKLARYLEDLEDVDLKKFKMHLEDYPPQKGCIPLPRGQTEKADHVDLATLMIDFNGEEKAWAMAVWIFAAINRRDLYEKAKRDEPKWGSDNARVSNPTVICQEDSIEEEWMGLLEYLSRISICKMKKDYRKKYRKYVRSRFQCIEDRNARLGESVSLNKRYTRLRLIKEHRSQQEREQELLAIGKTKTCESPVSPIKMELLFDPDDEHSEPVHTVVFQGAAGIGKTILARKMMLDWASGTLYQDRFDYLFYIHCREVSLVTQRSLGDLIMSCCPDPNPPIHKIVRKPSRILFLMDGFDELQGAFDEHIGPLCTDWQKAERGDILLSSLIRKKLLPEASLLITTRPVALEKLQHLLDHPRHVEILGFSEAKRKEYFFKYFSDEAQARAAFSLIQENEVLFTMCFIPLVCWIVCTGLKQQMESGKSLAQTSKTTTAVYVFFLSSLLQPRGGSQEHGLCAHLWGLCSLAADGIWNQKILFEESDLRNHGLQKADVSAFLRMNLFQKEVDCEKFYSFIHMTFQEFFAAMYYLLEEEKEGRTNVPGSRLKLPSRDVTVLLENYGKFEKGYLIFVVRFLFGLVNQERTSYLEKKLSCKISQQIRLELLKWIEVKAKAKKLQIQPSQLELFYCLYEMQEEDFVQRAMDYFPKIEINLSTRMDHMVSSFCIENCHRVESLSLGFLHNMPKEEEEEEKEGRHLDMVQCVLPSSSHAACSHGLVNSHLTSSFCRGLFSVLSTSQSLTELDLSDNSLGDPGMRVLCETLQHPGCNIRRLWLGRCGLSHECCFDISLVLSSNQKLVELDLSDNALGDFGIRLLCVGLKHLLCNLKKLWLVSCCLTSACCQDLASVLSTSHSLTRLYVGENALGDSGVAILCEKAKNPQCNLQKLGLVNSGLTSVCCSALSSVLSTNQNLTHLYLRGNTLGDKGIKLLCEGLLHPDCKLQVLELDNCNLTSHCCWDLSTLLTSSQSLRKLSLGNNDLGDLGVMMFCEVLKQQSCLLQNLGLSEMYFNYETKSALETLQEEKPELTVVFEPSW

Broadly, the IC50 is the midpoint of a concentration-inhibition curve. On to `CC(c1cc(S(=O)(=O)NC(=O)Nc2c3c(cc4c2CCC4)CCC3)nn1C)N1CCC1` (single isomer, unassigned) [Example 46, 5-(1-(Azetidin-1-yl)ethyl)-N-((1,2,3,5,6,7-hexahydro-s-indacen-4-yl)carbamoyl)-1-methyl-1H-pyrazole-3-sulfonamide, sodium salt], for which the IC50 is < 160 nM.
Then `CC(c1cc(S(=O)(=O)NC(=O)Nc2c3c(cc4c2CCC4)CCC3)nn1C)N1CCC1` (single isomer, unassigned) [Example 47, 5-(1-(Azetidin-1-yl)ethyl)-N-((1,2,3,5,6,7-hexahydro-s-indacen-4-yl)carbamoyl)-1-methyl-1H-pyrazole-3-sulfonamide, sodium salt], with < 160 nM; and `CC(=O)N1CC(n2ccc(S(=O)(=O)NC(=O)Nc3c4c(cc5c3CCC5)CCC4)n2)C1` [Example 4, 1-(1-Acetylazetidin-3-yl)-N-((1,2,3,5,6,7-hexahydro-s-indacen-4-yl)carbamoyl)-1H-pyrazole-3-sulfonamide], with < 2560 nM; and `CN1CCn2nc(S(=O)(=O)NC(=O)Nc3c4c(cc5c3CCC5)CCC4)cc2C1=O` [Example 5, N-((1,2,3,5,6,7-Hexahydro-s-indacen-4-yl)carbamoyl)-5-methyl-4-oxo-4,5,6,7-tetrahydropyrazolo[1,5-a]pyrazine-2-sulfonamide, sodium salt], with < 10000 nM.
Regarding `CC(C)c1cc(F)cc(C(C)C)c1NC(=O)NS(=O)(=O)c1ccn(CCN(C)C)n1` [Example 16, 1-(2-(Dimethylamino)ethyl)-N-((4-fluoro-2,6-diisopropyl-phenyl)carbamoyl)-1H-pyrazole-3-sulfonamide], the IC50 was < 10000 nM.
Consider `O=C(Nc1c2c(cc3c1CCC3)CCC2)NS(=O)(=O)c1ccn(Cc2ncccn2)n1` [Example 22, N-((1,2,3,5,6,7-Hexahydro-s-indacen-4-yl)carbamoyl)-1-(pyrimidin-2-ylmethyl)-1H-pyrazole-3-sulfonamide], for which the IC50 was < 2560 nM.
Consider `CN1CCC(n2ccc(S(=O)(=O)NC(=O)Nc3c4c(cc5c3CCC5)CCC4)n2)CC1` [Example 31, N-((1,2,3,5,6,7-Hexahydro-s-indacen-4-yl)carbamoyl)-1-(1-methylpiperidin-4-yl)-1H-pyrazole-3-sulfonamide], for which the IC50 is < 2560 nM.
Take `CN(C)CCCn1ccc(S(=O)(=O)NC(=O)Nc2c3c(cc4c2CCC4)CCC3)n1` [Example 32, 1-(3-(Dimethylamino)propyl)-N-((1,2,3,5,6,7-hexahydro-s-indacen-4-yl)carbamoyl)-1H-pyrazole-3-sulfonamide]: the IC50 was < 2560 nM.
Then `O=C(Nc1c2c(cc3c1CCC3)CCC2)NS(=O)(=O)c1ccn(-c2ccccn2)n1` [Example 119, N-((1,2,3,5,6,7-Hexahydro-s-indacen-4-yl)carbamoyl)-1-(pyridin-2-yl)-1H-pyrazole-3-sulfonamide, sodium salt], with < 2560 nM; and `O=C(Nc1c2c(cc3c1CCC3)CCC2)NS(=O)(=O)c1ccn(-c2nccs2)n1` [Example 120, N-((1,2,3,5,6,7-Hexahydro-s-indacen-4-yl)carbamoyl)-1-(thiazol-2-yl)-1H-pyrazole-3-sulfonamide, sodium salt], with < 2560 nM.
Then `O=C(Nc1c2c(cc3c1CCC3)CCC2)NS(=O)(=O)c1ccn(-c2cccnc2)n1` [Example 121, N-((1,2,3,5,6,7-Hexahydro-s-indacen-4-yl)carbamoyl)-1-(pyridin-3-yl)-1H-pyrazole-3-sulfonamide], with < 2560 nM.
Then `CC(C)c1cc(F)cc(C(C)C)c1NC(=O)NS(=O)(=O)c1cc(CN(C)CCO)n(C)n1` [Example 123, N-((4-Fluoro-2,6-diisopropylphenyl)carbamoyl)-5-(((2-hydroxyethyl)(methyl)amino)methyl)-1-methyl-1H-pyrazole-3-sulfonamide], with < 640 nM; and `COCCN(C)Cc1cc(S(=O)(=O)NC(=O)Nc2c(C(C)C)cc(F)cc2C(C)C)nn1C` [Example 125, N-((4-Fluoro-2,6-diisopropylphenyl)carbamoyl)-5-(((2-methoxyethyl)(methyl)amino)methyl)-1-methyl-1H-pyrazole-3-sulfonamide, sodium salt], with < 2560 nM; and `CC(C)c1cc(Cl)cc(C(C)C)c1NC(=O)NS(=O)(=O)c1cc(CN2CCOCC2)n(C)n1` [Example 127, N-((4-Chloro-2,6-diisopropylphenyl)carbamoyl)-1-methyl-5-(morpholinomethyl)-1H-pyrazole-3-sulfonamide, sodium salt], with < 2560 nM.
On to `Cn1nc(S(=O)(=O)NC(=O)Nc2c3c(cc4c2CCC4)CCC3)cc1CN1CCOCC1` [Example 128, N-((1,2,3,5,6,7-Hexahydro-s-indacen-4-yl)carbamoyl)-1-methyl-5-(morpholinomethyl)-1H-pyrazole-3-sulfonamide], for which the IC50 is < 2560 nM.
To `CC(C)c1cc(F)cc(C(C)C)c1NC(=O)NS(=O)(=O)c1cc(C(=O)N2CCC2)n(C(C)C)n1` [Example 130, 5-(azetidine-1-carbonyl)-N-((4-fluoro-2,6-diisopropylphenyl)carbamoyl)-1-isopropyl-1H-pyrazole-3-sulfonamide] belongs < 640 nM.
To `CC(C)c1ccc(-c2cncnc2)cc1NC(=O)NS(=O)(=O)c1cc(C(=O)N(C)C)n(C)n1` [Example 134, 3-(N-((2-Isopropyl-5-(pyrimidin-5-yl)phenyl)carbamoyl)sulfamoyl)-N,N,1-trimethyl-1H-pyrazole-5-carboxamide, sodium salt] belongs < 2560 nM.
To `CC(C)c1ccc(-c2cnn(C)c2)cc1NC(=O)NS(=O)(=O)c1cc(C(=O)N(C)C)n(C)n1` [Example 136, 3-(N-((2-Isopropyl-5-(1-methyl-1H-pyrazol-4-yl)phenyl)carbamoyl)sulfamoyl)-N,N,1-trimethyl-1H-pyrazole-5-carboxamide, sodium salt] belongs < 2560 nM; to `CC(C)NC(=O)c1cc(S(=O)(=O)NC(=O)Nc2c(C(C)C)cccc2C(C)C)nn1C` [Example 138, 3-(N-((2,6-Diisopropylphenyl)carbamoyl)sulfamoyl)-N-isopropyl-1-methyl-1H-pyrazole-5-carboxamide], < 10000 nM.
With `CC(C)c1cccc(C(C)C)c1NC(=O)NS(=O)(=O)c1cc(C(=O)N(C)CC#N)n(C)n1` [Example 140, N-(Cyanomethyl)-3-(N-((2,6-diisopropylphenyl)carbamoyl)sulfamoyl)-N,1-dimethyl-1H-pyrazole-5-carboxamide], the IC50 is < 10000 nM.
To `CC(C)NC(=O)c1cc(S(=O)(=O)NC(=O)Nc2c3c(cc4c2CCC4)CCC3)nn1C` [Example 146, 3-(N-((1,2,3,5,6,7-Hexahydro-s-indacen-4-yl)carbamoyl)sulfamoyl)-N-isopropyl-1-methyl-1H-pyrazole-5-carboxamide] belongs < 10000 nM.
To `CCN(CC)C(=O)c1cc(S(=O)(=O)NC(=O)Nc2c(C(C)C)cc(F)cc2C(C)C)nn1C` [Example 148, N,N-Diethyl-3-(N-((4-fluoro-2,6-diisopropylphenyl)carbamoyl)sulfamoyl)-1-methyl-1H-pyrazole-5-carboxamide, sodium salt] belongs < 640 nM.
To `CCN(CC)C(=O)c1cc(S(=O)(=O)NC(=O)Nc2c(C(C)C)cccc2C(C)C)nn1C` [Example 157, 3-(N-((2,6-Diisopropylphenyl)carbamoyl)sulfamoyl)-N,N-diethyl-1-methyl-1H-pyrazole-5-carboxamide] belongs < 2560 nM.
Take `Cn1nc(S(=O)(=O)NC(=O)Nc2c3c(cc4c2CCC4)CCC3)cc1C(=O)N1CCCC1` [Example 159, N-((1,2,3,5,6,7-Hexahydro-s-indacen-4-yl)carbamoyl)-1-methyl-5-(pyrrolidine-1-carbonyl)-1H-pyrazole-3-sulfonamide]: the half-maximal inhibitory concentration (IC50) is < 2560 nM.
